Values joined by “and” are separate entries in the source; they are usually repeats but may differ in a detail not shown here. Equal entries are not always repeated. Inconclusive results and toxic doses are left out.

The results in this text go back to PubChem BioAssay AID256 (DTP/NCI, 2004).

The test deals with CD2F1 mice, L1210 leukemia ip, survival T/C. Nature of the test: NCI In Vivo Anticancer Drug Screen. Data for tumor model L1210 Leukemia (intraperitoneal) in CD2F1 (CDF1) mice. To be noted: higher = longer survival. The method, boiled down: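 Activity against a transplanted murine tumor was judged by comparing the compound group with a vehicle group. The outcome in the treated animals was divided by that in the controls.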

Setting [1] is: endpoint: mean survival time, dose: 50.0 mg/kg/injection, schedule: Q01DX009 (ip), vehicle: saline with Tween-80.
Where [2] appears, read: endpoint: mean survival time, dose: 100.0 mg/kg/injection, schedule: Q01DX009 (ip), vehicle: saline with Tween-80.
Where [3] appears, read: endpoint: mean survival time, dose: 200.0 mg/kg/injection, schedule: Q01DX009 (ip), vehicle: saline with Tween-80.
Where [4] appears, read: endpoint: mean survival time, dose: 100.0 mg/kg/injection, schedule: Q01DX009 (ip), vehicle: saline.
Where [5] appears, read: endpoint: mean survival time, dose: 100.0 mg/kg/injection, schedule: Q04DX003 (ip), vehicle: saline.
Where [6] appears, read: endpoint: mean survival time, dose: 200.0 mg/kg/injection, schedule: Q04DX003 (ip), vehicle: saline.
[7] abbreviates: endpoint: mean survival time, dose: 100.0 mg/kg/injection, schedule: Q01DX001 (ip), vehicle: saline with Tween-80.
Setting [8] is: endpoint: mean survival time, dose: 100.0 mg/kg/injection, schedule: Q04DX002 (ip), vehicle: saline with Tween-80.
Where [9] appears, read: endpoint: mean survival time, dose: 200.0 mg/kg/injection, schedule: Q01DX001 (ip), vehicle: saline with Tween-80.
Setting [10] is: endpoint: mean survival time, dose: 200.0 mg/kg/injection, schedule: Q04DX002 (ip), vehicle: saline with Tween-80.
Setting [11] is: endpoint: mean survival time, dose: 400.0 mg/kg/injection, schedule: Q04DX002 (ip), vehicle: saline with Tween-80.

Turning to `COc1ccc(-n2c(=O)c(N=Nc3ccccc3)c(O)n(-c3ccc(C)cc3)c2=S)cc1`, the T/C runs as follows: (endpoint: mean survival time, dose: 100.0 mg/kg/injection, schedule: Q01DX001 (ip), vehicle: acetone) 96 % of control; (endpoint: mean survival time, dose: 200.0 mg/kg/injection, schedule: Q01DX001 (ip), vehicle: acetone) 94 % of control; (endpoint: mean survival time, dose: 400.0 mg/kg/injection, schedule: Q01DX001 (ip), vehicle: acetone) 96 % of control.

For `CC1c2ccccc2CC(CCN(C)C)c2ccccc21` (configuration not stated), the T/C (endpoint: median survival time, dose: 6.25 mg/kg/injection, schedule: Q01DX009 (ip), vehicle: saline with Tween-80) was 94 % of control; the T/C (endpoint: median survival time, dose: 12.5 mg/kg/injection, schedule: Q01DX009 (ip), vehicle: saline with Tween-80) is 113 % of control; the T/C (endpoint: median survival time, dose: 25.0 mg/kg/injection, schedule: Q01DX009 (ip), vehicle: saline with Tween-80) was 108 % of control; the T/C (endpoint: median survival time, dose: 50.0 mg/kg/injection, schedule: Q01DX009 (ip), vehicle: saline with Tween-80) was 112 % of control.

`CCCCOC(=O)/C=C(\Br)C(=O)OCCCC`: the T/C by setting is: (endpoint: mean survival time, dose: 6.25 mg/kg/injection, schedule: Q01DX009 (ip), vehicle: saline with Tween-80) 92 % of control and 96 % of control; (endpoint: mean survival time, dose: 12.5 mg/kg/injection, schedule: Q01DX009 (ip), vehicle: saline with Tween-80) 94 % of control and 105 % of control; (endpoint: mean survival time, dose: 25.0 mg/kg/injection, schedule: Q01DX009 (ip), vehicle: saline with Tween-80) 95 % of control and 100 % of control; under setting [1], 100 % of control; under setting [2], 92 % of control.

On to `CS/C(N)=N\C(=O)N(C)C`, for which the T/C by setting is: under setting [2], 98 % of control; under setting [3], 110 % of control; (endpoint: mean survival time, dose: 400.0 mg/kg/injection, schedule: Q01DX009 (ip), vehicle: saline with Tween-80) 103 % of control.

Consider `C#CC(C)(C)CC(=O)O`, for which the T/C runs as follows: under setting [4], 102 % of control; (endpoint: mean survival time, dose: 200.0 mg/kg/injection, schedule: Q01DX009 (ip), vehicle: saline) 101 % of control; (endpoint: mean survival time, dose: 400.0 mg/kg/injection, schedule: Q01DX009 (ip), vehicle: saline) 98 % of control.

For `CC(C)(C)c1cc(C(C)(C)C)c(C(=O)O)c(C(C)(C)C)c1Cl`, the T/C reads like this: (endpoint: mean survival time, dose: 100.0 mg/kg/injection, schedule: Q04DX003 (ip), vehicle: saline with Tween-80) 101 % of control; (endpoint: mean survival time, dose: 200.0 mg/kg/injection, schedule: Q04DX003 (ip), vehicle: saline with Tween-80) 97 % of control; (endpoint: mean survival time, dose: 400.0 mg/kg/injection, schedule: Q04DX003 (ip), vehicle: saline with Tween-80) 100 % of control.

`O=C1C=C(N2CCOCC2)C(=O)c2nccnc21`: the T/C is 95 % of control (endpoint: mean survival time, dose: 25.0 mg/kg/injection, schedule: Q04DX003 (ip), vehicle: saline with Tween-80) and 95 % of control (endpoint: mean survival time, dose: 50.0 mg/kg/injection, schedule: Q04DX003 (ip), vehicle: saline with Tween-80).

For the compound `O=[As](c1ccccc1Br)(c1ccccc1Br)c1ccccc1Br`, the T/C was 101 % of control (endpoint: mean survival time, dose: 50.0 mg/kg/injection, schedule: Q04DX003 (ip), vehicle: saline); 100 % of control under setting [5]; 95 % of control under setting [6].

Turning to `COc1ccccc1N=Nc1c(O)n(-c2ccc(Cl)cc2)c(=S)n(-c2ccccc2)c1=O`, the T/C was 97 % of control under setting [7]; 98 % of control under setting [8]; 97 % of control under setting [9]; 94 % of control under setting [10]; 103 % of control (endpoint: mean survival time, dose: 400.0 mg/kg/injection, schedule: Q01DX001 (ip), vehicle: saline with Tween-80); 102 % of control under setting [11].

Consider `COC(=O)CC(OC)OC`, for which the T/C runs as follows: under setting [5], 103 % of control; under setting [6], 94 % of control; (endpoint: mean survival time, dose: 400.0 mg/kg/injection, schedule: Q04DX003 (ip), vehicle: saline) 92 % of control.

For `CS(C)=O`, the T/C (endpoint: mean survival time, dose: 46.87 mg/kg/injection, schedule: Q01DX009 (ip), vehicle: saline) is 95 % of control; the T/C (endpoint: mean survival time, dose: 93.75 mg/kg/injection, schedule: Q01DX009 (ip), vehicle: saline) is 100 % of control and 103 % of control; the T/C (endpoint: mean survival time, dose: 187.5 mg/kg/injection, schedule: Q01DX009 (ip), vehicle: saline) was 100 % of control and 101 % of control; the T/C (endpoint: mean survival time, dose: 375.0 mg/kg/injection, schedule: Q01DX009 (ip), vehicle: saline) was 95 % of control and 100 % of control; the T/C (endpoint: mean survival time, dose: 750.0 mg/kg/injection, schedule: Q01DX009 (ip), vehicle: saline) was 97 % of control and 100 % of control; the T/C (endpoint: mean survival time, dose: 1500.0 mg/kg/injection, schedule: Q01DX009 (ip), vehicle: saline) is 100 % of control. The T/C runs as follows: (endpoint: mean survival time, dose: 1.5 grams/kg/injection, schedule: Q01DX009 (ip), vehicle: saline) 87 % of control and 100 % of control; (endpoint: mean survival time, dose: 3.0 grams/kg/injection, schedule: Q01DX009 (ip), vehicle: saline) 95 % of control; (endpoint: mean survival time, dose: 6.0 grams/kg/injection, schedule: Q01DX009 (ip), vehicle: saline) 89 % of control and 100 % of control.

As for `c1ccc(CN2CCCCc3ccccc32)cc1`, the T/C reads like this: under setting [1], 100 % of control; under setting [2], 98 % of control; under setting [3], 104 % of control.

With `O=C(/C=C\c1ccc(/C=C/C(=O)Nc2cccc(C3=NCCCN3)c2)cc1)Nc1cccc(C2=NCCCN2)c1`, the T/C runs as follows: (endpoint: median survival time, dose: 5.0 mg/kg/injection, schedule: Q01DX009 (ip), vehicle: Klucel (hydroxypropylcellulose) (HPC)) 175 % of control and 196 % of control; (endpoint: median survival time, dose: 10.0 mg/kg/injection, schedule: Q01DX009 (ip), vehicle: Klucel (hydroxypropylcellulose) (HPC)) 185 % of control and 250 % of control; (endpoint: median survival time, dose: 20.0 mg/kg/injection, schedule: Q01DX009 (ip), vehicle: Klucel (hydroxypropylcellulose) (HPC)) 113 % of control.

As to `CC(Cl)(C(Cl)Cl)C(F)(F)F` (configuration not stated), the T/C (endpoint: mean survival time, dose: 25.0 mg/kg/injection, schedule: Q01DX001 (ip), vehicle: saline) was 102 % of control; the T/C (endpoint: mean survival time, dose: 25.0 mg/kg/injection, schedule: Q01DX009 (ip), vehicle: saline) is 98 % of control; the T/C (endpoint: mean survival time, dose: 50.0 mg/kg/injection, schedule: Q01DX001 (ip), vehicle: saline) was 107 % of control; the T/C (endpoint: mean survival time, dose: 50.0 mg/kg/injection, schedule: Q01DX009 (ip), vehicle: saline) is 98 % of control; the T/C (endpoint: mean survival time, dose: 100.0 mg/kg/injection, schedule: Q01DX001 (ip), vehicle: saline) was 104 % of control and 108 % of control; the T/C under setting [4] was 98 % of control.

Turning to `CC1(C)c2c3ccccc3cc3cccc(c23)[S+]1c1ccccc1` (configuration not stated), the T/C is 105 % of control (endpoint: mean survival time, dose: 5.0 mg/kg/injection, schedule: Q01DX001 (ip), vehicle: saline with Tween-80); 106 % of control (endpoint: mean survival time, dose: 10.0 mg/kg/injection, schedule: Q01DX001 (ip), vehicle: saline with Tween-80); 111 % of control (endpoint: mean survival time, dose: 20.0 mg/kg/injection, schedule: Q01DX001 (ip), vehicle: saline with Tween-80).

`COc1ccc(OC)c2[nH]c(=O)c(CCC(=O)O)nc12`: the T/C is, setting by setting: under setting [7], 98 % of control; under setting [9], 92 % of control.

With `O=[N+]([O-])c1cc(-c2nnc(-c3ccc(Cl)c([N+](=O)[O-])c3)o2)ccc1Cl`, the T/C (endpoint: mean survival time, dose: 50.0 mg/kg/injection, schedule: Q04DX002 (ip), vehicle: saline with Tween-80) was 100 % of control; the T/C under setting [8] is 100 % of control; the T/C under setting [10] is 96 % of control; the T/C under setting [11] was 100 % of control.

`CCCc1nc(N)nc(N)n1`: the T/C reads like this: under setting [1], 104 % of control; under setting [2], 104 % of control; under setting [3], 116 % of control.

In the case of `COC(COC(=O)N1CCN(C=O)CC1)C1=C(N2CC2)C(=O)C(C)=C(N2CC2)C1=O` (configuration not stated), the T/C by setting is: (endpoint: median survival time, dose: 3.0 mg/kg/injection, schedule: Q01DX005 (ip), vehicle: saline) 168 % of control; (endpoint: median survival time, dose: 3.6 mg/kg/injection, schedule: Q01DX005 (ip), vehicle: saline) 160 % of control; (endpoint: median survival time, dose: 6.0 mg/kg/injection, schedule: Q01DX005 (ip), vehicle: saline) 190 % of control and 191 % of control; (endpoint: median survival time, dose: 12.0 mg/kg/injection, schedule: Q01DX005 (ip), vehicle: saline) 111 % of control.

In the case of `C(=NCc1ccccc1)c1ccc2c(c1)OCO2`, the T/C was 100 % of control under setting [8], 100 % of control under setting [10] and 100 % of control under setting [11].

Consider `O=C1OC2CCC(Br)CC2C=C1C1CCC([N+](=O)[O-])CC1` (configuration not stated), for which the T/C reads like this: under setting [8], 108 % of control; under setting [10], 100 % of control; under setting [11], 89 % of control.

As for `NC(N)=N/N=C/c1ccc(Cl)cc1Cl`, the T/C is 88 % of control (endpoint: mean survival time, dose: 8.0 mg/kg/injection, schedule: Q01DX Z (ip), vehicle: saline); 96 % of control (endpoint: mean survival time, dose: 16.0 mg/kg/injection, schedule: Q01DX Z (ip), vehicle: saline); 92 % of control (endpoint: mean survival time, dose: 31.0 mg/kg/injection, schedule: Q01DX Z (ip), vehicle: saline); 95 % of control (endpoint: mean survival time, dose: 62.0 mg/kg/injection, schedule: Q01DX Z (ip), vehicle: saline).
